Read-outs that look alike come from different tables or passages of the source.
Legend:
Format in all cases: cell-based
HCV RNA replication = experiment: HCV Inhibition Assay (replicon; RT-PCR or luciferase reporter readout); conditions: concentration for 90% inhibition of HCV replication, Clone A or ET-lunet replicon cells, 4 days
Method: Clone A or ET-lunet cells were seeded at a density of 1500 or 3000 cells per well in a 96-well plate, respectively. Test compounds serially diluted in culture medium without G418 were added to cells so that the final DMSO concentration was 0.5%. Plates were incubated at 37° C. in a 5% CO2 atmosphere for 4 days. Inhibition of HCV RNA replication was determined by real time PCR (RT-PCR) or by measuring the levels of luminescence expressed via the luciferase reporter gene encoded within the ET replicon. Briefly, for the RT-PCR assay, total RNA was extracted using the RNeasy-96 kit as recommended by the manufacturer (Qiagen, Valencia, Calif.), reversed transcribed into cDNA, and amplified using primer and probe mix for HCV 5′-NTR RNA and human ribosomal RNA (rRNA) in a one-step RT-PCR reaction as described previously (Stuyver, L. J. et al. Antiviral Chem. Chemother. (2006) 17, 79-87). A relative quantification method was used to determine the extent of inhibition. The threshold cycle (Ct) of rRNA was subtracted from the Ct of HCV RNA (ΔCt). The average ΔCt of the DMSO cell controls was then subtracted from the ΔCt of the compound treated sample (ΔΔCt). Percent inhibition was determined by using the following equation: %=(1−(2^−ΔΔC^t))×100. For the luciferase-based replicon assay, luminescence was measured by using a Victor3 plate reader (Perkin-Elmer, Boston, Mass.) following the addition of Bright-Glo reagent as recommended by the manufacturer (Promega, Madison, Wis.). Percent inhibition of HCV replication was determined by comparing the change in luminescence of the drug treated wells versus the DMSO cell controls. EC50 and EC90 values, the concentrations at which 50% and 90% inhibition were achieved, were determined using the GraphPad Prism software (San Diego, Calif.).

[1] = Cell Cytotoxicity Assays (MTS dye); conditions: human, 50% inhibition value, cell line not given; for CC50: 8 days
Method: (§1) Cell Cytotoxicity Assays.
(§2) Each compound (serially diluted from 100 μM) was added to Huh7 (2×10^3 cells/well), HepG2 (2×10^3 cells/well), BxPC3 (2×10^3 cells/well), or CEM (5×10^3 cells/well) cells and allowed to incubate for 8 days at 37° C. A medium only control was used to determine the minimum absorbance value […]. At the end of the growth period, MTS dye from the CellTiter 96 Aqueous One Solution Cell Proliferation Assay kit (Promega) was added to each well and the plate was incubated for an additional 2 hours. The absorbance at 490 nm was read with a Victor3 plate reader (Perkin Elmer) using the medium only control wells as blanks. The 50% inhibition value (CC50) was determined by comparing the absorbance in wells containing cells and test compound to untreated cell control wells.

[2] = test system: Huh7, HepG2, BxPC3, or CEM cells; experiment: Cell Cytotoxicity Assays (MTS dye); conditions: 50% inhibition value, 8 days, cell line not given
Method: as §1, §2

[3] = Cytotoxicity, MTT Assay (table footnote a)
[4] = Hepatitis C virus, 96 h, read-out: EC90

SMILES	EC90 (HCV RNA replication; [4])	CC50 [1]	further results
COc1nc(N)nc2c1ncn2[C@@H]1O[C@H](COP(=O)(NCc2ccccc2)OCCSC(=O)C(C)(C)CO)[C@@H](O)[C@@]1(C)O (single isomer, unassigned) [Compound 131a]	93 nM	–	CC50 at 8 days [1]: > 20000 nM
COc1nc(N)nc2c1ncn2[C@@H]1O[C@H](COP(=O)(NCc2ccccc2)OCCSC(=O)C(C)(C)CO)[C@@H](O)[C@@]1(C)O (single isomer, unassigned) [Compound 131b]	–	–	EC90 (HCV RNA replication; read-out: EC90): 186 nM; CC50 [2]: > 20000 nM
CC(C)(CO)C(=O)SCCOP(=O)(NCc1ccccc1)OC[C@H]1O[C@@H](n2cnc3c(=O)[nH]c(N)nc32)[C@](C)(O)[C@@H]1O (single isomer, unassigned) [Compound 132a]	300 nM	–	CC50 at 8 days [1]: > 20000 nM
CC(C)(CO)C(=O)SCCOP(=O)(NCc1ccccc1)OC[C@H]1O[C@@H](n2cnc3c(=O)[nH]c(N)nc32)[C@](C)(O)[C@@H]1O (single isomer, unassigned) [Compound 132b]	–	–	EC90 (HCV RNA replication; read-out: EC90): 350 nM; CC50 [2]: > 20000 nM
CNC(=O)c1c(-c2ccc(F)cc2)oc2cc(N(CCO)S(C)(=O)=O)c(C3CC3)cc12 [Compound 44, 5-cyclopropyl-2-(4-fluorophenyl)-6-[(2-hydroxyethyl)(methylsulfonyl)amino]-N-methyl-3-Benzofurancarboxamide, reference compound]	20 nM	–	CC50 [3]: > 10000 nM
CC(C)OC(=O)[C@H](C)NP(=O)(OC[C@H]1O[C@@H](n2ccc(=O)[nH]c2=O)[C@](C)(F)[C@@H]1O)Oc1ccccc1 (stereo partly drawn) [Compound 110, (S)-2-{[(1R,4R,5R)-5-(2,4-Dioxo-3,4-dihydro-2H-pyrimidin-1-yl)-4-(R)-fluoro-3-hydroxy-4-methyl-tetrahydro-furan-2-ylmethoxy]-phenoxy-phosphorylamino}-propionic acid (S)-isopropyl ester]	–	–	EC90 (HCV RNA replication; read-out: EC90): 220 nM; CC50 [2]: > 20000 nM
COc1nc(N)nc2c1ncn2[C@@H]1O[C@H](CO[P@@](=O)(N[C@@H](C)C(=O)OC(C)C)Oc2ccccc2)[C@@H](O)[C@@]1(C)F [Compound 117, SP-(2S)-isopropyl 2-(((((2R,3R,4R,5R)-5-(2-amino-6-methoxy-9H-purin-9-yl)-4-fluoro-3-hydroxy-4-methyltetrahydrofuran-2-yl)methoxy)(phenoxy)phosphoryl)amino)propanoate]	130 nM	> 20000 nM	–
COc1nc(N)nc2c1ncn2[C@@H]1O[C@H](CO[P@@](=O)(N[C@@H](C)C(=O)OC(C)C)Oc2ccccc2)[C@@H](O)[C@@]1(C)O [Compound 133, (S)-isopropyl 2-(((S)-(((2R,3R,4R,5R)-5-(2-amino-6-methoxy-9H-purin-9-yl)-3,4-dihydroxy-4-methyltetrahydrofuran-2-yl)methoxy)(phenoxy)phosphoryl)amino)propanoate]	78 nM	4140 nM	–
CC(C)OC(=O)[C@H](C)N[P@](=O)(OC[C@H]1O[C@@H](n2cnc3c(=O)[nH]c(N)nc32)[C@](C)(O)[C@@H]1O)Oc1ccccc1 [Compound 134, (S)-isopropyl 2-(((S)-(((2R,3R,4R,5R)-5-(2-amino-6-oxo-1H-purin-9(6H)-yl)-3,4-dihydroxy-4-methyltetrahydrofuran-2-yl)methoxy)(phenoxy)phosphoryl)amino)propanoate]	560 nM	> 20000 nM	–
CNC(=O)c1c(-c2ccc(F)cc2)oc2cc(N(CCO[P@@](=O)(N[C@@H](C)C(=O)OC(C)C)Oc3ccccc3)S(C)(=O)=O)c(C3CC3)cc12 [Compound 135, (S)-isopropyl 2-(((S)-(2-(N-(5-cyclopropyl-2-(4-fluorophenyl)-3-(methylcarbamoyl)benzofuran-6-yl)methylsulfonamido)ethoxy)(phenoxy)phosphoryl)amino)propanoate]	81 nM	> 20000 nM	–
COc1nc(N)nc2c1ncn2[C@@H]1O[C@H](COP(=O)(N[C@@H](C)C(=O)OCC(C)(C)C)Oc2cccc3ccccc23)[C@@H](O)[C@@]1(C)O (stereo partly drawn) [Compound 137, (2S)-neopentyl 2-(((((2R,3R,4R,5R)-5-(2-amino-6-methoxy-9H-purin-9-yl)-3,4-dihydroxy-4-methyltetrahydrofuran-2-yl)methoxy)(naphthalen-1-yloxy)phosphoryl)amino)propanoate]	–	–	EC90 (HCV RNA replication; Hepatitis C virus, 96 h): 1.7 nM; CC50 at 8 days [1]: > 1000 nM
COc1nc(N)nc2c1ncn2[C@@H]1O[C@H](COP(=O)(N[C@@H](C)C(=O)OCC(C)(C)C)Oc2cccc3ccccc23)[C@@H](O)[C@@]1(C)O (stereo partly drawn) [Compound 137a, (S)-neopentyl 2-(((((2R,3R,4R,5R)-5-(2-amino-6-methoxy-9H-purin-9-yl)-3,4-dihydroxy-4-methyltetrahydrofuran-2-yl)methoxy)(naphthalen-1-yloxy)phosphoryl)amino)propanoate]	3.7 nM	930 nM	–
CC(C)OC(=O)[C@H](C)N[P@](=O)(OC[C@H]1O[C@@H](n2ccc3c(N)ncnc32)[C@](C)(O)[C@@H]1O)Oc1ccccc1 [Compound 139, (S)-2-{(S)-[(2R,3R,4R,5R)-5-(4-amino-pyrrolo[2,3-d]pyrimidin-7-yl)-3,4-dihydroxy-4-methyl-tetrahydro-furan-2-ylmethoxy]-phenoxy-phosphorylamino}-propionic acid isopropyl ester]	20 nM	> 10000 nM	–
COc1nc(N)nc2c1ncn2[C@@H]1O[C@H](COP(=O)(N[C@@H](C)C(=O)OCC(C)(C)C)Oc2cccc3ccccc23)[C@@H](O)[C@@]1(C)F (stereo partly drawn) [Compound 140, (2S)-neopentyl 2-(((((2R,3R,4R,5R)-5-(2-amino-6-methoxy-9H-purin-9-yl)-4-fluoro-3-hydroxy-4-methyltetrahydrofuran-2-yl)methoxy)(naphthalen-1-yloxy)phosphoryl)amino)propanoate]	–	–	EC90 (HCV RNA replication; Hepatitis C virus, 96 h): 3.5 nM; CC50 at 8 days [1]: > 20000 nM
